Where a SMILES comes first, the peptide text is derived from it.
Key:
Assay in all cases: microbe, parasite or virus in culture
[1] = test system: S. aureus (MSSA) ATCC 9144; type: cell-based, Staphylococcus aureus; settings: ATCC 9144, 20 h
Experimental: (§1) Antimicrobial activity was evaluated against a panel of 18 pathogens consisting of eight Gram-negative strains (E. coli NCTC 12923, E. coli LEC001, Pseudomonas aeruginosa PAO1, P. aeruginosa NCTC 13437, Acinetobacter baumannii ATCC 17978, A. baumannii AYE, Klebsiella pneumoniae M6, K. pneumoniae NCTC 13368), four Gram-positive strains (Staphylococcus aureus ATCC 9144, S. aureus NCTC 13616, S. aureus USA300, S. aureus 1199B) and six fungi (Candida auris TDG 1912, C. albicans NCPF 8018, C. krusei NCPF 3876, C. tropicalis NCPF 8760, and C. parapsilosis NCPF 3209). Pathogens were grown in noncation adjusted Mueller Hinton broth (MHB, for bacteria) or Roswell Park Memorial Institute (RPMI 1640) + 2% glucose (for fungi) at 37 °C with 180 rpm shaking and maintained on solid media (tryptic soy agar for bacteria and Sabouraud dextrose agar for fungi). For an antibiogram, see Suppl.
(§2) The 46 peptides were serially diluted (128 to 2 μg/mL) in media down polypropylene 96-well plates. Bacteria or fungi, diluted from an overnight culture to an OD600 of 0.01, were added to the serially diluted peptides at a 1:1 ratio resulting in a starting cell density of ∼5 × 10^5 CFU/mL. Plates were incubated at 37 °C for 20 h, and the optical density was determined spectrophotometrically at 600 nm. Minimum inhibition concentrations (MICs) were determined from a minimum of three biological repeats and are reported in μg/mL as well as μM. […] The MIC50 or MIC90 is defined as the lowest peptide concentration that results in 50% or 90% growth inhibition over a 20 h treatment period, respectively.

S. aureus (MRSA) USA300 = type: cell-based, Staphylococcus aureus; settings: USA300, 20 h
Experimental: as §1, §2

[2] = test system: S. aureus (MRSA) NCTC 13616; type: cell-based, Staphylococcus aureus
Experimental: as §1, §2

A. baumannii ATCC 17978 = type: cell-based, Acinetobacter baumannii
Experimental: as §1, §2

A. baumannii AYE = type: cell-based, Acinetobacter baumannii; settings: 20 h
Experimental: as §1, §2

K. pneumoniae NCTC 13368 = type: cell-based, Klebsiella pneumoniae
Experimental: as §1, §2

K. pneumoniae M6 = type: cell-based, Klebsiella pneumoniae
Experimental: as §1, §2

C. auris TDG 1912 = type: cell-based, Candida auris; settings: TDG 1912, 20 h
Experimental: as §1, §2

[3] = test system: C. parapsilosis NCPF 3209; type: cell-based; settings: NCPF 3209, 20 h
Experimental: as §1, §2

C. glabrata NCPF 8018 = type: cell-based; settings: NCPF 8018, 20 h
Experimental: as §1, §2

C. albicans NCPF 3281 = type: cell-based; settings: NCPF 3281, 20 h
Experimental: as §1, §2

C. tropicalis NCPF 8760 = type: cell-based; settings: NCPF 8760, 20 h
Experimental: as §1, §2

C. krusei NCPF 3876 = type: cell-based; settings: NCPF 3876, 20 h
Experimental: as §1, §2

E. coli NCTC 12923 = type: cell-based, Escherichia coli
Experimental: as §1, §2

E. coli LEC001 = type: cell-based, Escherichia coli
Experimental: as §1, §2

P. aeruginosa NCTC 13437 = type: cell-based, Pseudomonas aeruginosa
Experimental: as §1, §2

S. aureus (MRSA) 1199B = type: cell-based, Staphylococcus aureus; settings: S. aureus (MRSA) 1199B (R); shown in µM
Experimental: as §1, §2

P. aeruginosa PAO1 = type: cell-based, Pseudomonas aeruginosa
Experimental: as §1, §2

CC[C@H](C)[C@H](NC(=O)[C@H](CCCCN)NC(=O)[C@H](CC(C)C)NC(=O)CNC(=O)[C@H](C)NC(=O)[C@H](CCCCN)NC(=O)[C@H](CC(C)C)NC(=O)[C@H](C)NC(=O)[C@H](CCCCN)NC(=O)CNC(=O)[C@H](CC(C)C)NC(=O)[C@H](Cc1ccccc1)NC(=O)[C@H](CO)NC(=O)[C@H](C)NC(=O)[C@H](CC(C)C)NC(=O)CN)C(=O)NCC(=O)N[C@@H](CO)C(=O)N[C@@H](Cc1c[nH]cn1)C(=O)N[C@@H](CC(C)C)C(=O)N[C@@H](CC(C)C)C(=O)NCC(=O)NCC(=O)N[C@@H](C)C(=O)N1CCC[C@H]1C(=O)N[C@@H](CCC(N)=O)C(=O)O [CPF-P2] (H-GLASFLGKALKAGLKIGSHLLGGAPQ-OH)
Modal MIC [1]: 1.4 µM
Modal MIC (S. aureus (MRSA) USA300): 2.9 µM
Modal MIC ([2]; NCTC 13616, 20 h): 1.4 µM
Modal MIC (A. baumannii ATCC 17978; ATCC 17978, 20 h): 1.4 µM
Modal MIC (A. baumannii AYE; AYE): 2.9 µM
Modal MIC (K. pneumoniae NCTC 13368; NCTC 13368, 20 h): 46 µM
Modal MIC (K. pneumoniae M6; M6, 20 h): 46 µM
Modal MIC50 (C. auris TDG 1912): > 46 µM
Modal MIC90 (C. auris TDG 1912): > 46 µM
Modal MIC50 [3]: > 46 µM
Modal MIC90 [3]: > 46 µM
Modal MIC50 (C. glabrata NCPF 8018): > 46 µM
Modal MIC90 (C. glabrata NCPF 8018): > 46 µM
Modal MIC50 (C. albicans NCPF 3281): > 46 µM
Modal MIC90 (C. albicans NCPF 3281): > 46 µM
Modal MIC50 (C. tropicalis NCPF 8760): 5.8 µM
Modal MIC90 (C. tropicalis NCPF 8760): 5.8 µM
Modal MIC50 (C. krusei NCPF 3876): 23 µM
Modal MIC90 (C. krusei NCPF 3876): 23 µM
Modal MIC (E. coli NCTC 12923; NCTC 12923, 20 h): 2.9 µM
Modal MIC (E. coli LEC001; LEC001, 20 h): 5.8 µM
Modal MIC (P. aeruginosa NCTC 13437; NCTC 13437, 20 h): 46 µM

CC[C@H](C)[C@H](NC(=O)[C@H](CCCCN)NC(=O)[C@H](CC(C)C)NC(=O)CNC(=O)[C@H](C)NC(=O)[C@H](CCCCN)NC(=O)[C@H](CC(C)C)NC(=O)[C@H](C)NC(=O)[C@H](CCCCN)NC(=O)CNC(=O)[C@H](CC(C)C)NC(=O)[C@@H](N)Cc1ccccc1)C(=O)NCC(=O)N[C@@H](CO)C(=O)N[C@@H](Cc1c[nH]cn1)C(=O)N[C@@H](CC(C)C)C(N)=O [CPF-P2a] (H-FLGKALKAGLKIGSHL-NH2)
Modal MIC (S. aureus (MRSA) 1199B): > 74 µM
Modal MIC (A. baumannii ATCC 17978; ATCC 17978, 20 h): 18.6 µM
Modal MIC (A. baumannii AYE; AYE): 37.1 µM
Modal MIC50 (C. auris TDG 1912): > 74 µM
Modal MIC90 (C. auris TDG 1912): > 74 µM
Modal MIC50 [3]: > 74 µM
Modal MIC90 [3]: > 74 µM
Modal MIC50 (C. glabrata NCPF 8018): > 74 µM
Modal MIC90 (C. glabrata NCPF 8018): > 74 µM
Modal MIC50 (C. albicans NCPF 3281): > 74 µM
Modal MIC90 (C. albicans NCPF 3281): > 74 µM
Modal MIC50 (C. tropicalis NCPF 8760): > 74 µM
Modal MIC90 (C. tropicalis NCPF 8760): > 74 µM
Modal MIC50 (C. krusei NCPF 3876): > 74 µM
Modal MIC90 (C. krusei NCPF 3876): > 74 µM
Modal MIC (E. coli NCTC 12923; NCTC 12923, 20 h): 18.6 µM
Modal MIC (E. coli LEC001; LEC001, 20 h): 37.1 µM

CC[C@H](C)[C@H](NC(=O)[C@H](CCCCN)NC(=O)[C@H](CO)NC(=O)[C@H](C)NC(=O)[C@H](Cc1c[nH]c2ccccc12)NC(=O)CN)C(=O)NCC(=O)N[C@@H](CCC(N)=O)C(=O)N[C@H](C(=O)N[C@@H](CC(C)C)C(=O)NCC(=O)N[C@@H](CCCCN)C(=O)N[C@H](C(=O)N[C@@H](C)C(=O)N[C@@H](CCCCN)C(=O)N[C@H](C(=O)NCC(=O)N[C@@H](CC(C)C)C(=O)N[C@@H](CCCCN)C(=O)N[C@@H](CCC(=O)O)C(=O)N[C@@H](CC(C)C)C(=O)N[C@H](C(=O)N[C@@H](CCC(N)=O)C(=O)N1CCC[C@H]1C(=O)N[C@@H](CCCCN)C(=O)O)[C@@H](C)CC)C(C)C)[C@@H](C)CC)[C@@H](C)O [XPF] (H-GWASKIGQTLGKIAKVGLKELIQPK-OH)
Modal MIC [1]: 11.6 µM
Modal MIC (S. aureus (MRSA) USA300): 46.5 µM
Modal MIC ([2]; NCTC 13616, 20 h): 46.5 µM
Modal MIC (A. baumannii ATCC 17978; ATCC 17978, 20 h): 1.5 µM
Modal MIC (A. baumannii AYE; AYE): 1.5 µM
Modal MIC (K. pneumoniae NCTC 13368; NCTC 13368, 20 h): 11.6 µM
Modal MIC (K. pneumoniae M6; M6, 20 h): 23.2 µM
Modal MIC50 [3]: > 46.5 µM
Modal MIC90 [3]: > 46.5 µM
Modal MIC50 (C. glabrata NCPF 8018): > 46.5 µM
Modal MIC90 (C. glabrata NCPF 8018): > 46.5 µM
Modal MIC50 (C. albicans NCPF 3281): > 46.5 µM
Modal MIC90 (C. albicans NCPF 3281): > 46.5 µM
Modal MIC50 (C. tropicalis NCPF 8760): 11.6 µM
Modal MIC90 (C. tropicalis NCPF 8760): 11.6 µM
Modal MIC50 (C. krusei NCPF 3876): > 46.5 µM
Modal MIC90 (C. krusei NCPF 3876): > 46.5 µM
Modal MIC (E. coli NCTC 12923; NCTC 12923, 20 h): 1.5 µM
Modal MIC (E. coli LEC001; LEC001, 20 h): 1.5 µM
Modal MIC (P. aeruginosa PAO1; PAO1, 20 h): 46.5 µM
Modal MIC (P. aeruginosa NCTC 13437; NCTC 13437, 20 h): 46.5 µM

Colistin [reference compound]
Modal MIC ([2]; S. aureus (MRSA) NCTC 13616 (R), MHB, 37 °C, 20 h, OD600, min. three biological repeats): > 128 µg/mL
Modal MIC (A. baumannii ATCC 17978; A. baumannii ATCC 17978 (S), MHB, 37 °C, 20 h, OD600, min. three biological repeats): 1 µg/mL
Modal MIC (A. baumannii AYE; A. baumannii AYE (R), MHB, 37 °C, OD600, min. three biological repeats): 1 µg/mL
Modal MIC (K. pneumoniae NCTC 13368; K. pneumoniae NCTC 13368 (R), MHB, 37 °C, 20 h, OD600, min. three biological repeats): 1 µg/mL
Modal MIC (K. pneumoniae M6; K. pneumoniae M6 (S), MHB, 37 °C, 20 h, OD600, min. three biological repeats): 2 µg/mL
Modal MIC (E. coli NCTC 12923; E. coli NCTC 12923 (S), MHB, ~5×10^5 CFU/mL, 37 °C, 20 h, OD600, min. three biological repeats): 0.0625 µg/mL
Modal MIC (E. coli LEC001; E. coli LEC001 (R), MHB, 37 °C, 20 h, OD600, min. three biological repeats): 2 µg/mL
Modal MIC (P. aeruginosa PAO1; P. aeruginosa PAO1 (S), MHB, 37 °C, 20 h, OD600, min. three biological repeats): 2 µg/mL
Modal MIC (P. aeruginosa NCTC 13437; P. aeruginosa NCTC 13437 (R), MHB, 37 °C, 20 h, OD600, min. three biological repeats): 4 µg/mL

From publication PMC11191095, “QSAR Reveals Decreased Lipophilicity of Polar Residues Determines the Selectivity of Antimicrobial Peptide Activity” (ACS Omega, 2024)
